# Laboratory results from patent publication WO2014051359A1, “Pharmaceutical composition comprising neferine as active ingredient for preventing or treating hepatoma” (Pukyong National University, priority 2012, dated 2014).
# Key:
# [1] = tested on: Hep3B; assay: Western blot of cell cycle-related proteins; assay type: cell-based; conditions: 15, 20, 25 μM, 24 h
# [2] = tested on: Hep3B; assay: Western blot of endoplasmic reticulum chaperone proteins; assay type: cell-based; conditions: 20 μM, depending on time
# [3] = tested on: Hep3B; assay: Immunofluorescence, cleaved caspase-8 and -3; assay type: cell-based; conditions: 15 μM, 12 h; vs untreated
# [4] = tested on: Hep3B; assay: Immunofluorescence, caspase-12 (endoplasmic reticulum stress); assay type: cell-based; conditions: 15 μM, 12 h
# [5] = tested on: THLE-3; assay: Cell viability assay (WST-1), THLE-3; assay type: cell-based; conditions: THLE-3, 5-30 μM, 24 h
# [6] = Cell viability assay (WST-1), THLE-3; assay type: cell-based; conditions: human, thle-3 cells, THLE-3, 30 μM, read-out: survival rate of the cells
# [7] = tested on: Hep3B cells transformed with GFP-LC3B plasmid; assay: Autophagosome formation in GFP-LC3B transformed cells, fluorescence microscopy; assay type: cell-based; conditions: 20 μM, over time (6, 12, 18, 24)
# [8] = tested on: HUVECs; assay: Tube formation assay (angiogenesis, in vitro); assay type: cell-based, human; conditions: for degree of tube formation (total tube length, converted to percent): 18 h (untreated 222)
# [9] = tested on: Sk-Hep1; assay: Cell viability assay (WST-1), Sk-Hep1; assay type: cell-based
# [10] = tested on: Hep3B; assay: Cell cycle analysis by flow cytometer (propidium iodide); assay type: cell-based; conditions: for sub-G1 cell population: 24 h (untreated 1.35%)
# [11] = tested on: Hep3B; assay: Wound-healing assay (cell migration); assay type: cell-based
# [12] = tested on: Hep3B; assay: Western blot of Bcl-2 family and apoptotic proteins; assay type: cell-based; conditions: 15, 20, 25 μM, 24 h
# [13] = tested on: Hep3B; assay: DAPI assay, nuclear condensation / apoptosis induction; assay type: cell-based; conditions: 20, 25 μM
# [14] = tested on: Hep3B; assay: Immunofluorescence, p21Waf1/Cip1; assay type: cell-based; conditions: 15 μM, 12 h; vs untreated
# [15] = tested on: Hep3B; assay: Cell viability assay (WST-1), Hep3B; assay type: cell-based; conditions: 24 h
# [16] = tested on: Hep3B; assay: Western blot of LC3B; assay type: cell-based; conditions: 15, 20, 25 μM, 12 h; vs untreated
smiles,measurement,setting,value
"COc1ccc(C[C@@H]2c3cc(Oc4cc(C[C@@H]5c6cc(OC)c(OC)cc6CCN5C)ccc4O)c(OC)cc3CCN2C)cc1 [neferine, 4-[[(1R)-6,7-Dimethoxy-2-methyl-3,4-dihydro-1H-isoquinolin-1-yl]methyl]-2-[[(1R)-6-methoxy-1-[(4-methoxyphenyl)methyl]-2-methyl-3,4-dihydro-1H-isoquinolin-7-yl]oxy]phenol]",CDK4 protein expression,[1],down regulation
same,E2F-1 protein expression,[1],down regulation
same,c-Myc protein expression,[1],down regulation
same,cyclin D1 protein expression,[1],down regulation
same,cyclin D3 protein expression,[1],down regulation
same,p21 Waf1/Cip1 protein expression,[1],expression was increased
same,phosphorylation of cdc2,[1],dephosphorylation of cdc2
same,Bip protein expression level,[2],significantly up-regulate
same,PDI protein expression level,[2],significantly up-regulate
same,calnexin protein expression level,[2],significantly up-regulate
same,calpain2 protein expression level,[2],significantly up-regulate
same,caspase-12 protein expression level,[2],significantly up-regulate
same,cleaved caspase-3 expression,[3],markedly expressed
same,cleaved caspase-8 expression,[3],markedly expressed
same,expansion of the endoplasmic reticulum (caspase-12 staining),[4],소포체의 확장을 관찰
same,cytotoxicity,[5],did not show cytotoxicity
same,"viability at 24 h, 30 µM",[6],~90%
same,number of autophagosomes in the cytoplasm (GFP-LC3B dots),[7],자가포식소체 수가 세포질 내에서 증가
same,size and number of vacuoles,[7],시간 의존적으로 더 크고 많이 증가
same,vacuole formation in the cytoplasm,[7],소체(vacuole) 형성이 발생
same,"degree of tube formation (total tube length, converted to percent)",[8]; 10 μM,216%
same,"degree of tube formation (total tube length, converted to percent)",[8]; 20 μM,202%
same,"degree of tube formation (total tube length, converted to percent)",[8]; 30 μM,146%
same,formation of cellular vascular structures,"[8]; 10, 20, 30 μM, 18 h",suppression of the formation of cellular vascular structures
same,"tube length (px), concentration dependence","[8]; 10, 20, 30 μM, 18 h",tube length (px) is reduced depending on the neferrin concentration
same,viability at 30 µM,"[9]; Homo sapiens, SK-HEP1, 24 h, read-out: survival rate of the cells",~90%
same,cytotoxicity,"[9]; Sk-Hep1, 5-30 μM, 24 h",did not show cytotoxicity
same,sub-G1 cell population,[10]; 15 μM,4.78%
same,increase of G1/S phase compared to untreated group,"[10]; 20 μM, 24 h",approximately 9%
same,sub-G1 cell population,[10]; 20 μM,16.01%
same,sub-G1 cell population (concentration dependence),"[10]; 15, 20, 25 μM, 24 h",sub-G1 cell population increases in proportion to the neferrin treatment concentration
same,inhibition at 15 µM,"[11]; Homo sapiens, Hep3B, 15 μM, 72 h, vs increased migration in untreated group, read-out: reduction of cell coverage area",~20%
same,cell migration,[11]; images at 12 h intervals,cell migration was suppressed depending on the neferrin treatment concentration
same,Bak protein expression,[12],significantly increased
same,Bax protein expression,[12],slightly increased
same,Bid protein expression,[12],slightly increased
same,Bim protein expression,[12],slightly increased
same,Puma protein expression,[12],significantly increased
same,caspase-3 protein expression,[12],decrease depending on the treatment concentration
same,cleaved PARP protein expression,[12],markedly increased
same,cleaved caspase-6 protein expression,[12],markedly increased
same,"nuclear membrane changes (shrinkage, blebbing)","[13]; 6 h after treatment, vs untreated",세포들의 응축(shrinkage) 및 파열(blebbing)과 같은 핵 막 변화가 나타나는
same,nuclear condensation (apoptosome formation),[13]; 24 h after treatment,핵 응축(apoptosome formation)이 관찰되었다
same,expression level of p21 Waf1/Cip1 protein around the nucleus in the cytoplasm,[14],두드러지게 증대
same,cell suppression,[15]; 10 μM or more,marked cell suppression
same,cell viability (concentration dependence),[15]; 5-30 μM,significant decrease in cell viability depending on the neferrin treatment concentration
same,viability at 30 µM,"[15]; Homo sapiens, read-out: cell viability",< 10%
same,expression of LC3B around the membrane,[16],농도 의존적으로 증가
